The test system of data set [1] is Mouse embryonic fibroblast cells. Kind of data set: Assay to analyse non-cytotoxic concentration (CellTiter 96 AQueous One cell proliferation assay). In kind it is cell-based. To be noted: up to 48 hours, highest concentration of 125 μM. The protocol: Mouse embryonic fibroblast cells were plated in 96-well cell culture plates (2×10^4 cells/well) and were treated with drug/s at various concentrations. […] After the incubation anti-proliferative activity of test compounds was measured using ProMega Cell Titer aqueous one solution cell proliferation assay kit, viz. CellTiter 96® AQueous One Solution Reagent. Cells were incubated for 1-4 hours at 37° C., 5% CO2 incubator and absorbance was measured at 490 nm using a plate reader. IC50 values were determined by plotting compound concentration versus cell viability.

The test system of data set [2] is PAR-4. Kind of data set: PAR-4 secretion assay, Western blot of conditioned media and lysate. It counts as cell-based, mouse. The procedure: Material: DMEM media, FBS, Mouse embryonic fibroblast cells, PAR-4 antibody, Antirabbit IgG-HRP, Collagen A1 antibody, B-actin antibody, Antimouse IgG HRP
Six well plate seeded (2 ml per well) with Mouse embryonic fibroblast cells in DMEM+10% FBS. The plate was incubated for 16-18 hrs, 37° C. 5% CO2.
Drugs to be tested are diluted with suitable solvent to obtain 25 mM concentration. Media from cells is discarded and replaced with DMEM media with 0.1% FBS. Compound added to the cells at final concentration of 25 μM.
Conditioned media (CM-supernatant) is collected from each well and centrifuged at 1000 rpm/5 mins to remove cell debris. After centrifugation the media was poured in concentration filters (Amicon ultracentrifuge tube with cutoff 10 Kda) and again centrifuged at 4500 rpm/15 mins at 4° C. The media was concentrated to 100 μl and then mixed with 50 μl of loading dye. The mixture was maintained in a 100° C. dry bath/water bath for 10 mins. SDS-PAGE and a western blot was performed of the samples using broad range molecular weight marker.
(Immunoblotting shows a protein as a band on a membrane.)

The test system of data set [3] is PAR-4. To be noted: mouse embryonic fibroblast (MEF) cells, at micromolar levels; cited from earlier work.

Consider `CO/N=C(\C(=O)N[C@@H]1C(=O)N2C(C(=O)O)=C(COC(N)=O)CS[C@H]12)c1ccco1` [Cefuroxime, (6R, 7R)-3-{[(aminocarbonyl)oxy]methyl}-7-{[(2Z)-2-(2-furyl)-2-(methoxyimino)acetyl]amino}-8-oxo-5-thia-1-azabicyclo [4.2.0]oct-2-ene-2-carboxylic acid], for which the “toxicity in Mouse Embryonic fibroblast cells” value in data set [1] is reported as “does not show toxicity”. In addition, the “PAR-4 secretion (FIG. 1, Western blot)” value in the data set on PAR-4 [2] (mouse embryonic fibroblast cells) was “increased PAR-4 secretion”. Besides, the “increase in the secretion of intracellular PAR-4” value with PAR-4 [2] (mouse embryonic fibroblast cells (lysate), compared to DMSO control, Western blot, compound at 25 μM) is “about 2 fold”. In the data set on PAR-4 [2] (mouse embryonic fibroblast cells, compared to DMSO control, Western blot, compound at 25 μM), the “increase in the secretion of PAR-4 in the conditioned media” value is reported as 4-5 fold.

In the case of `COc1ccc(C2=N[C@@H](c3ccc(Cl)cc3)[C@@H](c3ccc(Cl)cc3)N2C(=O)N2CCNC(=O)C2)c(OC(C)C)c1` [Nutlin-3a], the “stimulation of PAR-4 secretion” value in the data set on PAR-4 [3] was “stimulated PAR-4 secretion at micromolar levels”.
